From patent US6461997B1, “Triazole sulfones having herbicidal activity” (Monsanto Technology LLC, priority 1999, dated 2002)

What was measured:
AMARE (redroot pigweed) = experiment: Pre-emergence herbicidal activity, warm season; assay type: in vivo, Amaranthus retroflexus; details: GR80 = lowest tested rate (300, 100, 30, 10 g/ha) with 80% or greater inhibition; approx. 14 days after treating; 30/21° C.
Method in brief: (§1)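 Seeds sown in sterilised fertilised topsoil received surface-applied compound in 50:50 acetone/water, typically at 300, 100, 30 and 10 g/ha, then greenhouse-grown at 30/21° C (warm-season species) or 18/13° C (cool-season species). Percent inhibition versus untreated plants was scored at about 14 days, giving GR80; an asterisk marks activity short of 80% at the top rate.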

POROL (common purslane) = experiment: Pre-emergence herbicidal activity, warm season; assay type: in vivo, Portulaca oleracea; details: GR80 = lowest tested rate (300, 100, 30, 10 g/ha) with 80% or greater inhibition; approx. 14 days after treating; 30/21° C.
Method in brief: as §1

[1] = tested on: PANMI (wild proso millet); experiment: Pre-emergence herbicidal activity, warm season; assay type: in vivo, Panicum miliaceum; details: GR80 = lowest tested rate (300, 100, 30, 10 g/ha) with 80% or greater inhibition; approx. 14 days after treating; 30/21° C.
Method in brief: (§2)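 Read-out: GR80, derived from percent growth inhibition relative to untreated plants at roughly 14 days after planting and treatment. Compounds went onto the surface of freshly seeded soil at 10–300 g/ha. Day/night regimes were 30/21 °C for millet and crabgrass, 18/13 °C for blackgrass and buckwheat.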

[2] = tested on: BRAPP (broadleaf signalgrass); experiment: Pre-emergence herbicidal activity, warm season; assay type: in vivo, Brachiaria platyphylla; details: GR80 = lowest tested rate (300, 100, 30, 10 g/ha) with 80% or greater inhibition; approx. 14 days after treating; 30/21° C.
Method in brief: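 GR80 values derive from percent inhibition relative to untreated plants, read roughly 14 days after sowing and pre-emergence soil-surface treatment (compound in 50:50 acetone/water; rates typically 10, 30, 100, 300 g/ha). Warm-season weeds grew at 30/21° C day/night, cool-season ones at 18/13° C; an asterisk marks activity without reaching 80% at the highest rate.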

DIGSA (large crabgrass) [3] = experiment: Pre-emergence herbicidal activity, warm season; assay type: in vivo, Digitaria sanguinalis; details: GR80 = lowest tested rate (300, 100, 30, 10 g/ha) with 80% or greater inhibition; approx. 14 days after treating; 30/21° C.
Method in brief: as §2

SETVI (green foxtail) = experiment: Pre-emergence herbicidal activity, cool season; assay type: in vivo, Setaria viridis; details: GR80 = lowest tested rate (300, 100, 30, 10 g/ha) with 80% or greater inhibition; approx. 14 days after treating; 18/13° C.
Method in brief: as §1

[4] = tested on: AGSST (creeping bentgrass); experiment: Pre-emergence herbicidal activity, cool season; assay type: in vivo, Agrostis stolonifera; details: GR80 = lowest tested rate (300, 100, 30, 10 g/ha) with 80% or greater inhibition; approx. 14 days after treating; 18/13° C.
Method in brief: as §1

DIGSA (large crabgrass) [5] = experiment: Pre-plant incorporated (PPI) herbicidal activity, warm season; assay type: in vivo, Digitaria sanguinalis; details: for PPI activity GR80, DIGSA: pre-plant incorporated, lowest tested rate with 80% or greater inhibition, about 14 days
Method in brief: (§3)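 Herbicidal effect is given as percent inhibition compared with untreated pots after roughly 14 days. The compound is incorporated into the cover soil layer rather than sprayed on the surface. Temperature regime is 30/21° C for warm-season and 18/13° C for cool-season species.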

[6] = tested on: GALAP (catchweed bedstraw); experiment: Pre-plant incorporated (PPI) herbicidal activity, cool season; assay type: in vivo, Galium aparine; details: for PPI activity GR80, GALAP: pre-plant incorporated, lowest tested rate with 80% or greater inhibition, about 14 days
Method in brief: as §3

LOLMG (annual ryegrass) = experiment: as above; assay type: in vivo, Lolium multiflorum; details: for PPI activity GR80, LOLMG: pre-plant incorporated, lowest tested rate with 80% or greater inhibition, about 14 days
Method in brief: as §3

[7] = tested on: AEGCY (jointed goatgrass); experiment: as above; assay type: in vivo, Aegilops cylindrica; details: for PPI activity GR80, AEGCY: pre-plant incorporated, lowest tested rate with 80% or greater inhibition, about 14 days
Method in brief: as §3

[8] = tested on: AGRRE (quackgrass (seedling)); experiment: as above; assay type: in vivo, Elymus repens; details: for PPI activity GR80, AGRRE: pre-plant incorporated, lowest tested rate with 80% or greater inhibition, about 14 days
Method in brief: as §3

POAAN (annual bluegrass) = experiment: as above; assay type: in vivo, Poa annua; details: weed, PPI application
Method in brief: as §3

[9] = weed, PPI application, 100 g/ha
[10] = weed, PPI application, 300 g/ha
[11] = weed, PPI application, 900 g/ha

C=CCC(F)(F)S(=O)(=O)c1ncn(C(=O)N(CC)CC)n1 [Example 17, 1-(N,N-diethylcarbamoyl)-3-[(1,1-difluoro-3-butenyl)sulfonyl]-1,2,4-triazole]
Pre-emergence activity (GR80) AMARE (AMARE (redroot pigweed)): 300 g/ha
Pre-emergence activity (GR80) POROL (POROL (common purslane)): 300 g/ha
Pre-emergence activity (GR80) PANMI [1]: 100 g/ha
Pre-emergence activity (GR80) BRAPP [2]: 300 g/ha
Pre-emergence activity (GR80) DIGSA (DIGSA (large crabgrass) [3]): 100 g/ha
Pre-emergence activity (GR80) SETVI (SETVI (green foxtail)): 100 g/ha
Pre-emergence activity (GR80) AGSST [4]: 100 g/ha
inhibition at 10 g/ha (DIGSA (large crabgrass) [5]; Digitaria sanguinalis, PPI application, 10 g/ha, read-out: Percent inhibition DIGSA): 60%
inhibition at 30 g/ha (DIGSA (large crabgrass) [5]; Digitaria sanguinalis, PPI application, 30 g/ha, read-out: Percent inhibition DIGSA): 80%
inhibition at 100 g/ha (DIGSA (large crabgrass) [5]; Digitaria sanguinalis, PPI application, 100 g/ha, read-out: Percent inhibition DIGSA): 80%
inhibition at 300 g/ha (DIGSA (large crabgrass) [5]; Digitaria sanguinalis, PPI application, 300 g/ha, read-out: Percent inhibition DIGSA): 80%
inhibition at 900 g/ha (DIGSA (large crabgrass) [5]; Digitaria sanguinalis, PPI application, 900 g/ha, read-out: Percent inhibition DIGSA): 100%
PPI activity GR80, DIGSA (DIGSA (large crabgrass) [5]): 30 g/ha
inhibition at 10 g/ha ([6]; Galium aparine, weed, PPI application, 10 g/ha, read-out: Percent inhibition GALAP): 0%
inhibition at 30 g/ha ([6]; Galium aparine, weed, PPI application, 30 g/ha, read-out: Percent inhibition GALAP): 60%
inhibition at 100 g/ha ([6]; Galium aparine, weed, PPI application, 100 g/ha, read-out: Percent inhibition GALAP): 40%
inhibition at 300 g/ha ([6]; Galium aparine, weed, PPI application, 300 g/ha, read-out: Percent inhibition GALAP): 80%
inhibition at 900 g/ha ([6]; Galium aparine, weed, PPI application, 900 g/ha, read-out: Percent inhibition GALAP): 100%
PPI activity GR80, GALAP [6]: 100 g/ha
inhibition at 10 g/ha (LOLMG (annual ryegrass); Lolium multiflorum, weed, PPI application, 10 g/ha, read-out: Percent inhibition LOLMG): 45%
inhibition at 30 g/ha (LOLMG (annual ryegrass); Lolium multiflorum, weed, PPI application, 30 g/ha, read-out: Percent inhibition LOLMG): 60%
inhibition at 100 g/ha (LOLMG (annual ryegrass); Lolium multiflorum, weed, PPI application, 100 g/ha, read-out: Percent inhibition LOLMG): 95%
inhibition at 300 g/ha (LOLMG (annual ryegrass); Lolium multiflorum, weed, PPI application, 300 g/ha, read-out: Percent inhibition LOLMG): 100%
inhibition at 900 g/ha (LOLMG (annual ryegrass); Lolium multiflorum, weed, PPI application, 900 g/ha, read-out: Percent inhibition LOLMG): 100%
PPI activity GR80, LOLMG (LOLMG (annual ryegrass)): 100 g/ha
inhibition at 10 g/ha ([7]; Aegilops cylindrica, weed, PPI application, 10 g/ha, read-out: Percent inhibition AEGCY): 0%
inhibition at 30 g/ha ([7]; Aegilops cylindrica, weed, PPI application, 30 g/ha, read-out: Percent inhibition AEGCY): 0%
inhibition at 100 g/ha ([7]; Aegilops cylindrica, weed, PPI application, 100 g/ha, read-out: Percent inhibition AEGCY): 0%
inhibition at 300 g/ha ([7]; Aegilops cylindrica, weed, PPI application, 300 g/ha, read-out: Percent inhibition AEGCY): 20%
inhibition at 900 g/ha ([7]; Aegilops cylindrica, weed, PPI application, 900 g/ha, read-out: Percent inhibition AEGCY): 40%
PPI activity GR80, AEGCY [7]: 100 g/ha
inhibition at 10 g/ha ([8]; Elymus repens, weed, PPI application, 10 g/ha, read-out: Percent inhibition AGRRE): 0%
inhibition at 30 g/ha ([8]; Elymus repens, weed, PPI application, 30 g/ha, read-out: Percent inhibition AGRRE): 40%
inhibition at 100 g/ha ([8]; Elymus repens, weed, PPI application, 100 g/ha, read-out: Percent inhibition AGRRE): 50%
inhibition at 300 g/ha ([8]; Elymus repens, weed, PPI application, 300 g/ha, read-out: Percent inhibition AGRRE): 60%
inhibition at 900 g/ha ([8]; Elymus repens, weed, PPI application, 900 g/ha, read-out: Percent inhibition AGRRE): 70%
PPI activity GR80, AGRRE [8]: 100 g/ha
inhibition at 10 g/ha (POAAN (annual bluegrass); Poa annua, 10 g/ha, read-out: Percent inhibition POAAN): 10%
inhibition at 30 g/ha (POAAN (annual bluegrass); Poa annua, 30 g/ha, read-out: Percent inhibition POAAN): 60%
inhibition at 100 g/ha (POAAN (annual bluegrass); Poa annua, 100 g/ha, read-out: Percent inhibition POAAN): 70%
inhibition at 300 g/ha (POAAN (annual bluegrass); Poa annua, 300 g/ha, read-out: Percent inhibition POAAN): 95%
inhibition at 900 g/ha (POAAN (annual bluegrass); Poa annua, 900 g/ha, read-out: Percent inhibition POAAN): 100%

CCN(CC)C(=O)n1cnc(S(=O)(=O)C(F)(F)C(F)F)n1 [Example 16]
Pre-emergence activity (GR80) AMARE (AMARE (redroot pigweed)): 300 g/ha
Pre-emergence activity (GR80) POROL (POROL (common purslane)): 100 g/ha
Pre-emergence activity (GR80) PANMI [1]: 30 g/ha
Pre-emergence activity (GR80) BRAPP [2]: 300 g/ha
Pre-emergence activity (GR80) DIGSA (DIGSA (large crabgrass) [3]): 30 g/ha
Pre-emergence activity (GR80) SETVI (SETVI (green foxtail)): 300 g/ha
Pre-emergence activity (GR80) AGSST [4]: 30 g/ha
Percent inhibition DIGSA (DIGSA (large crabgrass) [5]; PPI application, 10 g/ha): 70%
Percent inhibition DIGSA (DIGSA (large crabgrass) [5]; PPI application, 30 g/ha): 100%
Percent inhibition DIGSA (DIGSA (large crabgrass) [5]; PPI application, 100 g/ha): 90%
Percent inhibition DIGSA (DIGSA (large crabgrass) [5]; PPI application, 300 g/ha): 100%
Percent inhibition DIGSA (DIGSA (large crabgrass) [5]; PPI application, 900 g/ha): 100%
PPI activity GR80, DIGSA (DIGSA (large crabgrass) [5]): 10 g/ha
PPI activity GR80, GALAP [6]: 100 g/ha
Percent inhibition GALAP ([6]; weed, PPI application, 10 g/ha): 0%
Percent inhibition GALAP ([6]; weed, PPI application, 30 g/ha): 20%
Percent inhibition GALAP [6, 9]: 100%
Percent inhibition GALAP [6, 10]: 100%
Percent inhibition GALAP [6, 11]: 100%
PPI activity GR80, LOLMG (LOLMG (annual ryegrass)): 300 g/ha
Percent inhibition LOLMG (LOLMG (annual ryegrass); weed, PPI application, 10 g/ha): 45%
Percent inhibition LOLMG (LOLMG (annual ryegrass); weed, PPI application, 30 g/ha): 35%
Percent inhibition LOLMG (LOLMG (annual ryegrass); [9]): 90%
Percent inhibition LOLMG (LOLMG (annual ryegrass); [10]): 95%
Percent inhibition LOLMG (LOLMG (annual ryegrass); [11]): 100%
PPI activity GR80, AEGCY [7]: 300 g/ha
Percent inhibition AEGCY ([7]; weed, PPI application, 10 g/ha): 0%
Percent inhibition AEGCY ([7]; weed, PPI application, 30 g/ha): 0%
Percent inhibition AEGCY [7, 9]: 0%
Percent inhibition AEGCY [7, 10]: 20%
Percent inhibition AEGCY [7, 11]: 60%
PPI activity GR80, AGRRE [8]: 300 g/ha
Percent inhibition AGRRE ([8]; weed, PPI application, 10 g/ha): 0%
Percent inhibition AGRRE ([8]; weed, PPI application, 30 g/ha): 0%
Percent inhibition AGRRE [8, 9]: 0%
Percent inhibition AGRRE [8, 10]: 20%
Percent inhibition AGRRE [8, 11]: 70%
Percent inhibition POAAN (POAAN (annual bluegrass); 10 g/ha): 20%
Percent inhibition POAAN (POAAN (annual bluegrass); 30 g/ha): 50%
Percent inhibition POAAN (POAAN (annual bluegrass); 100 g/ha): 65%
Percent inhibition POAAN (POAAN (annual bluegrass); 300 g/ha): 100%
Percent inhibition POAAN (POAAN (annual bluegrass); 900 g/ha): 100%
